Where a SMILES comes first, the peptide text is derived from it. The star is where a group is joined. Myristoyl = CCCCCCCCCCCCCC(=O)*

Series [1] relates to CD44^hiCD24^lo CSCs in MDA-MB-231 cells. The series is described as follows: FACS analysis of CD44^hiCD24^lo cancer stem cells in MDA-MB-231 cells treated with P1 analogues. In kind it is cell-based, human. As to conditions: 50 μM peptide, 48 hours; for CD44^hiCD24^lo CSCs (%) / COI, Live Single CD44^hiCD24^lo CSCs (Cell Count): n = 1; for Average Inhibition of CSCs (%) / CD44^hiCD24^lo CSCs (%) Repeat 1 / CD44^hiCD24^lo CSCs (%) Repeat 2 / CD44^hiCD24^lo CSCs (%) Repeat 3: n = 3. The protocol:
Analogues of P1 (Table 6) were designed and synthesized in accordance with the procedure of Example 5. The ability of these analogues to inhibit cancer stem cells was determined using FACS analysis on MDA-MB-231 cells, which constitutively contain approximately 90% CD44^hiCD24^lo cancer stem cells, treated with the peptides.
(§1) Non-adherent cells were removed during the washing steps.
In general terms: A flow cytometer gives signals particle by particle.

For a further series, the system named is MDA-MB-231 cells. In kind it is cell-based, human. As to conditions: for killing of total MDA-MB-231 cells: not only the CSCs.
Description: as §1

In series [2] the test system is CD44^hiCD24^lo CSCs in MCF7 cells. The series is described as follows: FACS analysis of CD44^hiCD24^lo CSCs in MCF7 cells. The class given is cell-based, human. As to conditions: 50 μM peptide, 48 hours. Here is the method:
(§2) P1 Analogues were synthesized in accordance with the procedure of Example 5. 4×10^4 MDA-MB-231 cells or 1×10^4 induced or non-induced MCF7 cells were seeded in a 12 well plate with 1 mL complete media overnight. Induced MCF7 cells were prepared by stimulating cells with PMA/TGF-β and incubating for 12 hours. Cells were treated with 50 μM test peptide (dissolved in water) for 48 hours. Cells were then washed twice with 1 mL PBS and harvested by trypsinisation. Non-adherent cells were removed during the washing steps. Adherent cells were collected, and were subsequently stained with anti-human CD44, CD24 and Hoechst 33342 antibodies on ice for 30 mins. FACS was performed on BD FACS LSRII to measure the percentage of CD44^hiCD24^lo CSCs by dividing CD44^hiCD24^lo events by total live cell counts (Hoechst negative population) (as described in Fillmore and Kuperwasser (2007) Breast Cancer Res, 9: 303). The percentage of viable cells was calculated by dividing total live cell events by total single cells as described previously (Siemann and Keng (1986), Cancer Res, 46: 3556-3559).

The subject of a further series is MCF7 cells. The protocol:
as §2

A further series relates to induced MCF7 cells. The series is described as follows: FACS CSC inhibition in induced MCF7 cells. The class given is cell-based, human. As to conditions: induced MCF7 cells (PMA/TGF-β), 50 μM peptide, 48 hours. The protocol:
as §2

Where [3] appears, read: MCF7 cells, 50 μM peptide, 48 hours.
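Throughout, for COI, Live Single Cells (Cell Count): live means Hoechst-negative events among single cells.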

As to `CCCCCCCCCCCCCC(=O)N[C@H](C(=O)N[C@@H](Cc1ccccc1)C(=O)N[C@H](C(=O)N[C@@H](Cc1ccccc1)C(=O)N[C@@H](CCCNC(=N)N)C(=O)N[C@@H](CC(C)C)C(=O)N[C@@H](CCCNC(=N)N)C(=O)N[C@@H](CCCCN)C(=O)NCC(=O)N[C@@H](CCCNC(=N)N)C(=O)N[C@@H](C)C(=O)N[C@@H](CCSC)C(=O)N[C@@H](CC(=O)O)C(=O)N[C@H](C(=O)N[C@@H](CCCCN)C(=O)N[C@@H](CCCCN)C(N)=O)C(C)C)[C@@H](C)CC)[C@@H](C)O` [Peptide 2815312, Myristoyl-TFIFRLRKGRAMDVKK-NH2] (Myristoyl-TFIFRLRKGRAMDVKK-NH2), in series [1], the “Inhibition of CSCs (%) Repeat 1” value was found to be 100.00%, the “Inhibition of CSCs (%) Repeat 2” value turned out to be 100.00%, the “Inhibition of CSCs (%) Repeat 3” value worked out at 100.00% and the “CD44^hiCD24^lo CSCs (%)” value was 0.00%. For the same compound, in series [1], the “COI, Live Single CD44^hiCD24^lo CSCs (Cell Count)” value is 0; the “Average Inhibition of CSCs (%)” value is on record as 100.00%; the “CD44^hiCD24^lo CSCs (%) Repeat 1” value turned out to be 0.00%; the “CD44^hiCD24^lo CSCs (%) Repeat 2” value was determined as 0.00%. Further, the “CD44^hiCD24^lo CSCs (%) Repeat 3” value in series [1] stood at 0.00%. In the series on MDA-MB-231 cells (50 μM peptide, 48 hours, n = 1), the “COI (Cell Count)” value came out at 9; the “COI, Live Single Cells (Cell Count)” value turned out to be 6; the “COI, Single (Cell Count)” value worked out at 7; the “Total Cell Count” value is reported as 2993. In addition, in the series on MDA-MB-231 cells, the “killing of total MDA-MB-231 cells” value is listed as “killed the majority of the total MDA-MB-231 cells”. Further, in series [2], the “CD44^hiCD24^lo CSC %” value is 3.28% and the “COI/Single Cells/Live/CD44^hiCD24^lo CSCs Count” value is on record as 142. In the series with MCF7 cells (setting [3]), the “COI Count” value is listed as 5333, the “COI/Single Cell Count” value is 4517, the “COI/Single Cells/Live Count” value was found to be 4331 and the “Total Count” value came to 10000. The “CSC inhibition (%)” value in the series on induced MCF7 cells stood at 53.47%.
`CCCCCCCCCCCCCC(=O)N[C@H](C(=O)N[C@@H](Cc1ccccc1)C(=O)N[C@H](C(=O)N[C@@H](Cc1ccccc1)C(=O)N[C@@H](CCCNC(=N)N)C(=O)N[C@@H](CC(C)C)C(=O)N[C@@H](CCCNC(=N)N)C(=O)N[C@@H](CCCCN)C(=O)NCC(=O)N[C@@H](CCCNC(=N)N)C(=O)N[C@@H](CCSC)C(=O)N[C@@H](CCSC)C(=O)N[C@@H](C)C(=O)N[C@H](C(=O)N[C@@H](CCCCN)C(=O)N[C@@H](CCCCN)C(N)=O)C(C)C)[C@@H](C)CC)[C@@H](C)O` [Peptide 2815314, Myristoyl-TFIFRLRKGRMMAVKK-NH2] (Myristoyl-TFIFRLRKGRMMAVKK-NH2): in series [1], the “Inhibition of CSCs (%) Repeat 1” value turned out to be 100.00%, the “Inhibition of CSCs (%) Repeat 2” value is 100.00%, the “Inhibition of CSCs (%) Repeat 3” value came to 100.00% and the “CD44^hiCD24^lo CSCs (%)” value turned out to be 0.00%. Further, in series [1], the “COI, Live Single CD44^hiCD24^lo CSCs (Cell Count)” value turned out to be 0; the “Average Inhibition of CSCs (%)” value is 100.00%; the “CD44^hiCD24^lo CSCs (%) Repeat 1” value is 0.00%; the “CD44^hiCD24^lo CSCs (%) Repeat 2” value worked out at 0.00%. Moreover, the “CD44^hiCD24^lo CSCs (%) Repeat 3” value in series [1] came out at 0.00%. Moreover, in the series with MDA-MB-231 cells (50 μM peptide, 48 hours, n = 1), the “COI (Cell Count)” value came to 10; the “COI, Live Single Cells (Cell Count)” value is listed as 2; the “COI, Single (Cell Count)” value turned out to be 9; the “Total Cell Count” value came to 5611. The “killing of total MDA-MB-231 cells” value in the series with MDA-MB-231 cells was “killed the majority of the total MDA-MB-231 cells”. In addition, in series [2], the “CD44^hiCD24^lo CSC %” value turned out to be 2.75% and the “COI/Single Cells/Live/CD44^hiCD24^lo CSCs Count” value is reported as 145. In addition, in the series with MCF7 cells (setting [3]), the “COI Count” value is reported as 6564, the “COI/Single Cell Count” value is reported as 5443, the “COI/Single Cells/Live Count” value is 5276 and the “Total Count” value amounted to 10000. The “CSC inhibition (%)” value in the series on induced MCF7 cells came to 61.00%.
In the case of `CCCCCCCCCCCCCC(=O)N[C@@H](CC(C)C)C(=O)N[C@@H](CCCCN)C(=O)N[C@@H](Cc1ccccc1)C(=O)N[C@H](C(=O)N[C@@H](Cc1ccccc1)C(=O)N[C@@H](CCCNC(=N)N)C(=O)N[C@@H](CC(C)C)C(=O)N[C@@H](CCCNC(=N)N)C(=O)N[C@@H](CCCCN)C(=O)NCC(=O)N[C@@H](CCCNC(=N)N)C(=O)N[C@@H](CCSC)C(=O)N[C@@H](CCSC)C(=O)N[C@@H](CC(=O)O)C(=O)N[C@H](C(=O)N[C@@H](CCCCN)C(=O)N[C@@H](CCCCN)C(N)=O)C(C)C)[C@@H](C)CC` [Peptide 2853805, Myristoyl-LKFIFRLRKGRMMDVKK-NH2] (Myristoyl-LKFIFRLRKGRMMDVKK-NH2), in series [1], the “Inhibition of CSCs (%) Repeat 1” value is 100.00%, the “Inhibition of CSCs (%) Repeat 2” value came out at 100.00%, the “Inhibition of CSCs (%) Repeat 3” value was 100.00% and the “CD44^hiCD24^lo CSCs (%)” value worked out at 0.00%. Besides, in series [1], the “COI, Live Single CD44^hiCD24^lo CSCs (Cell Count)” value was found to be 0; the “Average Inhibition of CSCs (%)” value was determined as 100.00%; the “CD44^hiCD24^lo CSCs (%) Repeat 1” value is 0.00%; the “CD44^hiCD24^lo CSCs (%) Repeat 2” value came out at 0.00%. The “CD44^hiCD24^lo CSCs (%) Repeat 3” value in series [1] is 0.00%. Moreover, in the series on MDA-MB-231 cells (50 μM peptide, 48 hours, n = 1), the “COI (Cell Count)” value is reported as 52; the “COI, Live Single Cells (Cell Count)” value is reported as 1; the “COI, Single (Cell Count)” value is listed as 32; the “Total Cell Count” value is given as 3221. Moreover, the “killing of total MDA-MB-231 cells” value with MDA-MB-231 cells is listed as “killed the majority of the total MDA-MB-231 cells”. Besides, in series [2], the “CD44^hiCD24^lo CSC %” value was 2.50% and the “COI/Single Cells/Live/CD44^hiCD24^lo CSCs Count” value is 108. In addition, in the series on MCF7 cells (setting [3]), the “COI Count” value is reported as 5356, the “COI/Single Cell Count” value was 4637, the “COI/Single Cells/Live Count” value came out at 4320 and the “Total Count” value is 10000. In addition, in the series with induced MCF7 cells, the “CSC inhibition (%)” value is 64.52%.
Take `CCCCCCCCCCCCCC(=O)N[C@@H](CC(C)C)C(=O)N[C@H](C(=O)N[C@@H](Cc1ccccc1)C(=O)N[C@H](C(=O)N[C@@H](Cc1ccccc1)C(=O)N[C@@H](CCCNC(=N)N)C(=O)N[C@@H](CC(C)C)C(=O)N[C@@H](CC(C)C)C(=O)N[C@@H](CCCCN)C(=O)NCC(=O)N[C@@H](CCCNC(=N)N)C(=O)N[C@@H](CCSC)C(=O)N[C@@H](CCSC)C(=O)N[C@@H](CC(=O)O)C(=O)N[C@H](C(=O)N[C@@H](CCCCN)C(=O)N[C@@H](CCCCN)C(N)=O)C(C)C)[C@@H](C)CC)[C@@H](C)O` [Peptide 2853825, Myristoyl-LTFIFRLLKGRMMDVKK-NH2] (Myristoyl-LTFIFRLLKGRMMDVKK-NH2): in series [1], the “Inhibition of CSCs (%) Repeat 1” value stood at 100.00%, the “Inhibition of CSCs (%) Repeat 2” value came out at 100.00%, the “Inhibition of CSCs (%) Repeat 3” value is given as 100.00% and the “CD44^hiCD24^lo CSCs (%)” value turned out to be 0.00%. In series [1], the “COI, Live Single CD44^hiCD24^lo CSCs (Cell Count)” value stood at 0; the “Average Inhibition of CSCs (%)” value worked out at 100.00%; the “CD44^hiCD24^lo CSCs (%) Repeat 1” value amounted to 0.00%; the “CD44^hiCD24^lo CSCs (%) Repeat 2” value is given as 0.00%. Moreover, in series [1], the “CD44^hiCD24^lo CSCs (%) Repeat 3” value came to 0.00%. Moreover, in the series on MDA-MB-231 cells (50 μM peptide, 48 hours, n = 1), the “COI (Cell Count)” value came to 18; the “COI, Live Single Cells (Cell Count)” value amounted to 0; the “COI, Single (Cell Count)” value is given as 15; the “Total Cell Count” value turned out to be 1583. In the series on MDA-MB-231 cells (50 μM peptide, 48 hours, n = 1), the “Viable Cells (%)” value worked out at 0.00%. Further, in the series with MDA-MB-231 cells, the “killing of total MDA-MB-231 cells” value is recorded as “killed the majority of the total MDA-MB-231 cells”. For the same compound, in series [2], the “CD44^hiCD24^lo CSC %” value is 0.00% and the “COI/Single Cells/Live/CD44^hiCD24^lo CSCs Count” value was 0. Moreover, in the series with MCF7 cells, the “cytotoxicity to MCF7 cells” value was “cytotoxic”. Moreover, in the series with MCF7 cells (setting [3]), the “% Viable Cells” value was 0.00%, the “COI Count” value amounted to 72, the “COI/Single Cell Count” value was 35 and the “COI/Single Cells/Live Count” value stood at 0. Further, the “Total Count” value in the series on MCF7 cells (setting [3]) stood at 10000. In the series with induced MCF7 cells, the “CSC inhibition (%)” value is given as “Cytotoxic”.
